Measured values: patent publication US8211939B2, “Isosorbide nitrates” (Lacer, S.A., priority 2008, dated 2012)
Where two headings read alike, the source gives them in different places.

Tests used:
[1] = tested on: coronary angina caused by coronary obstruction (35% ferric chloride patch on left anterior descending coronary artery); assay: Anti-anginal activity, ferric chloride-induced coronary angina (ECG S-wave); type: in vivo, Male Wistar rats; conditions: Rattus norvegicus, po, rat, 90 μmol/kg p.o., vs untreated control, read-out: Antianginal activity (% inhibition of S-wave decrease)
Method: Anti-Anginal Activity Assessment
Male Wistar rats weighing 250-300 g were used after an acclimatization period of five days, and animals were divided in groups of 8 for each treatment. In all experiments, rats were treated with 90 μmol/kg of each product by oral gavage using an administration volume of 10 ml/kg unless otherwise stated. The vehicle used to dissolve the products consisted of 1% Cremophor EL 27963, 1% Tween 80 and 0.5% Methocel E-15 in distilled water. […]
The procedure used to test the anti-anginal activity was that described by Hirata Y et al (Hirata Y, et al. Journal of Cardiovascular Pharmacology 1998, 31: 322-326).
After treatment, animals were anaesthetized with pentobarbital and electrodes were set for standard limb lead II electrocardiogram recording (Grass polygraph model 7, amplifier 7DA and pre-amplifier 7P1).
To induce coronary angina caused by coronary obstruction, a 35%-ferric chloride embedded mini patch was applied onto the left anterior descending coronary artery just below the left auricle. In all groups, after application of the patch, the ECG was recorded during 10 minutes. The shortening of the S-wave amplitude was measured on the recorded ECG. Data were collected with a Biopac system model MP100 connected to a Pentium PC. Results were expressed as % inhibition of S-wave decrease vs the untreated control.

[2] = tested on: thrombus formation in the carotid artery (70% FeCl3 patch); assay: Anti-thrombotic activity, FeCl3-induced carotid artery thrombosis; type: in vivo, Male Wistar rats; conditions: Rattus norvegicus, po, 90 μmol/kg p.o., % animals protected, read-out: Antithrombotic activity (% protection)
Method: Anti-Thrombotic Activity Assessment Experimental Procedure Male Wistar rats weighing 250-300 g were used after an acclimatization period of five days, and animals were divided in groups of 8 animals each for the treatments. […] The vehicle used to dissolve the products consisted of 1% Cremophor EL 27963, 1% Tween 80 and 0.5% Methocel E-15 in distilled water. After a fasting period of 8 hours with free access to drinking water each product was given by gavage 1 hour before induction of thrombosis. Thrombus formation was induced using a patch embedded with 70% FeCl3 solution applied onto the carotid artery using the same procedure described by Feuerstein G Z et al and later modified by Kurz et al (Feuerstein G Z, et al Artherioscler. Thromb. Vasc. Biol. 1999, 19: 2554-2562, Kurz K D, et al Thromb. Res. 1990, 60:269-280). Anti-thrombotic efficacy was evaluated at different times after dosage. Rats were anesthetized with sodium pentobarbital and then placed on a dorsal position over a thermal blanket laid on a surgical board and heated at 37° C. The left carotid artery was dissected and an electromagnetic blood flow probe was placed on the artery to measure blood flow. After application of the thrombotic stimuli, blood flow was monitored for the following 30 minutes. The vessel was considered occluded by the thrombus when flow reached 0.0 ml/min. Data were analysed by contingency tables using the Graph Pad Prism Program. P values were calculated using Fisher's exact test, values of p<0.05 were considered statistically significant. Results were expressed as % animals protected.

| SMILES | inhibition in vivo at 90 µmol/kg ([1]; 1 h, 1 h) [%] | inhibition in vivo at 90 µmol/kg ([1]; 4 h, 4 h) [%] | responders at 90 µmol/kg ([2]; 1 h, 1 h after dosage) [%] | responders at 90 µmol/kg ([2]; 2 h, 2 h after dosage) [%] | responders at 90 µmol/kg ([2]; 4 h, 4 h after dosage) [%] | responders at 90 µmol/kg ([2]; 0.5 h, ½ h after dosage) [%] | inhibition in vivo at 90 µmol/kg ([1]; 2 h, 2 h) [%] |
| --- | --- | --- | --- | --- | --- | --- | --- |
| CCCS(=O)(=O)[C@H]1CO[C@H]2[C@@H]1OC[C@H]2O[N+](=O)[O-] [Ej. 8, (3R,3aS,6S,6aS)-6-(propylsulfonyl)hexahydrofuro[3,2-b]furan-3-yl nitrate] | 77 | 25 | 100 | 50 | 0 |  |  |
| CC(=O)S[C@@H]1CO[C@H]2[C@@H]1OC[C@H]2O[N+](=O)[O-] [Ej. 10, S-(3R,3aS,6R,6aS)-6-(nitrooxy)hexahydrofuro[3,2-b]furan-3-yl ethanethioate] | 69 | 57 | 75 | 83 | 40 | 67 |  |
| CCS[C@@H]1CO[C@H]2[C@@H]1OC[C@H]2O[N+](=O)[O-] [Ej. 11, (3R,3aS,6R,6aS)-6-(ethylthio)hexahydrofuro[3,2-b]furan-3-yl nitrate] | 41 |  | 66 |  | 0 |  |  |
| CCCS[C@@H]1CO[C@H]2[C@@H]1OC[C@H]2O[N+](=O)[O-] [Ej. 12, (3R,3aS,6R,6aS)-6-(propylthio)hexahydrofuro[3,2-b]furan-3-yl nitrate] | 14 | 0 | 32 |  | 16 |  | 0 |
| CCS(=O)(=O)[C@@H]1CO[C@H]2[C@@H]1OC[C@H]2O[N+](=O)[O-] [Ej. 15, (3R,3aS,6R,6aS)-6-(ethylsulfonyl)hexahydrofuro[3,2-b]furan-3-yl nitrate] | 21 | 0 | 9 |  | 0 |  | 0 |
| CCCS(=O)(=O)[C@@H]1CO[C@H]2[C@@H]1OC[C@H]2O[N+](=O)[O-] [Ej. 16, (3R,3aS,6R,6aS)-6-(propylsulfonyl)hexahydrofuro[3,2-b]furan-3-yl nitrate] | 32 | 30 | 40 |  | 20 |  |  |
